Like-named read-outs stand apart in the source and are kept apart here.
Tests used:
[1] = test system: human neuroblastoma cell line SH-SY5Y; test: Inhibition of BSO-induced non-apoptotic cell death (Example B.1); type: cell-based; settings: SH-SY5Y cells, 72 hours
In short: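 SH-SY5Y cells exposed to 50 μM BSO together with compound (0.5 pM–100 μM, triplicate) for 72 h at 37°C, 5% CO2. Survival measured by AquaBluer fluorescence (ex 530–560/em 590 nm), normalised to percent surviving cells, and IC50 derived.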

SH-SY5Y cells = test: TNF-alpha-induced apoptosis, specificity for non-apoptotic cell death (Example B.3); type: cell-based, human; settings: compound 1 μM, TNF-alpha 10 ng/mL, FIG. 1
Procedure: SH-SY5Y cells were propagated and seeded in 96-well plates, together with compound N-1, N-2, N-10 of Table 1-N (FIG. 1(a)), compound O/S-6 or O/S-3 of Table 1-O/S (FIG. 1(b)), or compound C-12, C-91, or C-205 of Table 1-C (FIG. 1(c)) (each 1 μM) and TNF-alpha was added (final concentration: 10 ng/mL) to induce apoptosis. The apoptosis and pan-caspase inhibitor z-vad (final concentration: 50 μM) and the necroptosis inhibitor Necrostatin-1 (Nec-1; final concentration: 5 μM) were used for comparison. Control wells were established with vehicle only (DMSO), with and without treatment with TNF-alpha to induce apoptosis. Cells were incubated, and cell survival was detected and quantified. Percentage cell survival after TNF-alpha-induced apoptosis is shown (error bars indicate standard deviation (SD)).
Briefly, SH-SY5Y cells were propagated and seeded in 96-well plates, together with the compound to be tested (1 μM), generally as described in Example B.1, except they were seeded at 1,000 cell/well and instead of BSO, TNF-alpha (Invitrogen) was added to a final concentration of 10 ng/mL to induce apoptosis. The apoptosis and pan-caspase inhibitor Z-VAD-fmk (Enzo Life Science; final concentration 50 μM) and the necroptosis inhibitor Necrostatin-1 (Nec-1; Enzo Life Science; final concentration 5 μM) were used for comparison. Control wells were established with vehicle only (DMSO), with and without treatment with TNF-alpha to induce apoptosis. Cells were incubated, and cell survival was detected and quantified as described in Example B.1.

C57BL/6 mice [2] = test: Liver ischemia-reperfusion injury animal model (Example C.1); type: in vivo, mouse; settings: liver IRI (90 min ischemia, 24 h reperfusion), single i.p. dose 10 mg/Kg, compared to vehicle control
Procedure: FIG. 2: Efficacy of a compound of the invention in an animal model of liver IRI. […] The “Sham” bar represents the data from control animals that were treated to the same protocol but without atraumatic clipping. Errors shown are SEM. Significant differences are seen between IRI+vehicle compared to IRI+Cmpd, as well as between IRI+vehicle compared to Sham+vehicle.
Briefly, to test such utility of compounds disclosed herein, ischemia is induced in the liver of 6-8 week old C57BL/6 mice (Charles River) by midline laparotomy whereby the blood supply to the left and median lobes of the liver is interrupted via atraumatic clipping for 90 min, followed by reperfusion for a period of 24 h. After reperfusion, but prior to final abdominal closure, animals are treated with a single i.p. dose of the compound to be tested (10 mg/Kg), or with vehicle (DMSO) as negative control. Markers to be investigated for IRI of liver include liver parameters from serum (ALT/GPT, AST/GOT, Bilirubin, Urea), histopathological analysis and rtPCR of inflammatory and non-apoptotic cell death markers (such as TNF-alpha and INF-gamma). […] The “Sham” bar represents the data from control animals that were treated to the same protocol but without atraumatic clipping.

C57BL/6 mice [3] = test: Kidney ischemia-reperfusion injury animal model (Example C.2); type: in vivo, mouse; settings: kidney IRI, compared to vehicle control, FIG. 3
Procedure: FIG. 3: Efficacy of a compound of the invention in an animal model of kidney IRI.
Briefly, to test such utility of compounds disclosed herein, ischemia is induced in the kidney of 6-8 week old C57BL/6 mice by interruption of the blood supply to the kidney via reversible clipping of the Arteria renalis for 30 min, followed by reperfusion for a period of 24 h. Mice are treated with compound (or vehicle control) generally as described in Example C.1 at 1 hour prior to and four hours after abdominal closure and once daily over a period of 14 days. Markers to be investigated for IRI of kidney include reduction of creatinine levels in the serum along with histopathological analysis.

`Clc1cccc(CNC2=Nc3ccccc3NC23CCNCC3)c1` [N-2] was tested, and the IC50 ([1]; 50 μM BSO, read-out: SH-SY5Y/BSO IC50) was < 20 nM, the IC50 ([1]; BSO 50 μM, cell survival (AquaBluer), read-out: SH-SY5Y/BSO (Example B.1) IC50) was 2.81 nM and the “Percentage cell survival after TNF-alpha-induced apoptosis” value (SH-SY5Y cells) was “Non-inhibition of apoptotic cell-death”. The “serum marker for liver cell damage GPT” value (C57BL/6 mice [2]; FIG. 2(a)) was “significant reduction”, the “serum marker for liver cell damage GOT” value (C57BL/6 mice [2]; FIG. 2(b)) was “significant reduction” and the “survival of mice suffering kidney-ischemic reperfusion injury” value (C57BL/6 mice [3]; dose 1 mg/kg) was “Improved survival”. For the same compound, the “survival of mice suffering kidney-ischemic reperfusion injury” value (C57BL/6 mice [3]; dose 10 mg/kg) was “Improved survival”.
